Experimental data as given in ChEMBL document CHEMBL1165953, “Synthesis and biological evaluation of 4(5)-(6-methylpyridin-2-yl)imidazoles and -pyrazoles as transforming growth factor-beta type 1 receptor kinase inhibitors” (Bioorg Med Chem, 2010).
In brackets after ≈: the same amount, converted by molar mass.

Experiments:
[1] = Aqueous solubility in buffer solution at pH 1.2; format: physicochemical
[2] = Metabolic stability assessed as 3-((4-(2-hydroxyquinoxalin- 6-yl)-5-(6-methylpyridin-2-yl)-1H-imidazol-2-yl)methyl)benzamide or 3-((4-(3-hydroxyquinoxalin-6-yl)-5-(6-methylpyridin-2-yl)- 1H-imidazol-2-yl)methyl)benzamide) levels at 120 uM by HPLC analysis in presence human recombinant CYP2C19; format: ADME; details: recombinant enzyme
[3] = Metabolic stability assessed as 3-((4-(2-hydroxyquinoxalin- 6-yl)-5-(6-methylpyridin-2-yl)-1H-imidazol-2-yl)methyl)benzamide or 3-((4-(3-hydroxyquinoxalin-6-yl)-5-(6-methylpyridin-2-yl)- 1H-imidazol-2-yl)methyl)benzamide) levels at 120 uM by HPLC analysis in presence human recombinant CYP2D6; format: ADME; details: recombinant enzyme
[4] = Metabolic stability assessed as 3-((4-(2-hydroxyquinoxalin- 6-yl)-5-(6-methylpyridin-2-yl)-1H-imidazol-2-yl)methyl)benzamide or 3-((4-(3-hydroxyquinoxalin-6-yl)-5-(6-methylpyridin-2-yl)- 1H-imidazol-2-yl)methyl)benzamide) levels at 120 uM by HPLC analysis in presence human recombinant CYP2C8; format: ADME; details: recombinant enzyme
[5] = Metabolic stability assessed as 3-((4-(2-hydroxyquinoxalin- 6-yl)-5-(6-methylpyridin-2-yl)-1H-imidazol-2-yl)methyl)benzamide or 3-((4-(3-hydroxyquinoxalin-6-yl)-5-(6-methylpyridin-2-yl)- 1H-imidazol-2-yl)methyl)benzamide) levels at 120 uM by HPLC analysis in presence human recombinant CYP3A4; format: ADME; details: recombinant enzyme
[6] = target: Vascular endothelial growth factor receptor 1 (Homo sapiens, UniProt P17948); assay: Inhibition of VEGFR1
[7] = target: T1, TGF-beta receptor type-1 (Homo sapiens, UniProt P36897)
T1 sequence (P36897 whole entry): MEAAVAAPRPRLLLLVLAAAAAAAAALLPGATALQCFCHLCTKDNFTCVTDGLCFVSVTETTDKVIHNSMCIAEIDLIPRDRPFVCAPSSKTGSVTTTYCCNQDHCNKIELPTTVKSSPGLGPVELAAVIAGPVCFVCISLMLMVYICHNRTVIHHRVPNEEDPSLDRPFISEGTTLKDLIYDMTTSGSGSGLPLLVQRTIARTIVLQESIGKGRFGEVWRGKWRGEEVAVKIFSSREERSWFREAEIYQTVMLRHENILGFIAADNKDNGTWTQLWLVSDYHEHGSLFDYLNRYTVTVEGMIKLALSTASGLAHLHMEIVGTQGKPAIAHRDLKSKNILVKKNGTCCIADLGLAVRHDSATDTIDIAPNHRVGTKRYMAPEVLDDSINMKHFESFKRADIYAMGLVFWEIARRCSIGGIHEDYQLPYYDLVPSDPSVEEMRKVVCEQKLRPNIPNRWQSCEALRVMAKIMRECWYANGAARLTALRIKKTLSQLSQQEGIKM
Description: Inhibition of human recombinant GST-fused ALK5 expressed in Sf9 cells

[8] = target: Platelet-derived growth factor receptor alpha (Homo sapiens, UniProt P16234); assay: Inhibition of PDGFRalpha
[9] = target: Vascular endothelial growth factor receptor 3 (Homo sapiens, UniProt P35916); assay: Inhibition of VEGFR3
[10] = target: T2, Serine/threonine-protein kinase D1 (Homo sapiens, UniProt Q15139); assay: Inhibition of PKCmu
T2 sequence (Q15139 whole entry): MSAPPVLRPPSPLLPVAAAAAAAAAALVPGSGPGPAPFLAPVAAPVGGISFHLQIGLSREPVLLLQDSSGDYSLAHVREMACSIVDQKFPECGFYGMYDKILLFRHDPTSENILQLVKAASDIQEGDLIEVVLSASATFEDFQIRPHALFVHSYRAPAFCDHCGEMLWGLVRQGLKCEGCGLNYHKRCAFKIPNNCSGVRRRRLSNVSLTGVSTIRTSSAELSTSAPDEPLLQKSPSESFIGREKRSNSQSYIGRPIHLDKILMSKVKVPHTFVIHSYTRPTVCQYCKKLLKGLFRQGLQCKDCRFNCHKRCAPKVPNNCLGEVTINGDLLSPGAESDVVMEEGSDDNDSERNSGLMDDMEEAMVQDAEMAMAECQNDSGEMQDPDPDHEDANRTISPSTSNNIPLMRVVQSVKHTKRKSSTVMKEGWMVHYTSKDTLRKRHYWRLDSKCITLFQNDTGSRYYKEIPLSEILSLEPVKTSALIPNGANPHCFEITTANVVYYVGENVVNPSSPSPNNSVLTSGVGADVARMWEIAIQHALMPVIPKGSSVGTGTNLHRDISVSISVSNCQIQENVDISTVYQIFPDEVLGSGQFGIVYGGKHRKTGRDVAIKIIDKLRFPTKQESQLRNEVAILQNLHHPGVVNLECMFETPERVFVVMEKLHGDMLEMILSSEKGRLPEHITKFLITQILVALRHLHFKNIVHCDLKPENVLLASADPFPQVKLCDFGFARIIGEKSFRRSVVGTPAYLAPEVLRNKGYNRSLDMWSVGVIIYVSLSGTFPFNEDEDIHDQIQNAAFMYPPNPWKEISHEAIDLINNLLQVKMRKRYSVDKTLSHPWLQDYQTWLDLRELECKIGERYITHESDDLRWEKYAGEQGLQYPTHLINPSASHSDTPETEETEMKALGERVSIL

[11] = Metabolic stability assessed as 3-((4-(2-hydroxyquinolin-6-yl)-5-(6-methylpyridin-2-yl)-1H-imidazol-2-yl)methyl)benzamide or 3-((4-(3-hydroxyquinolin-6-yl)-5-(6-methylpyridin-2-yl)-1H-imidazol-2-yl)methyl)benzamide levels at 120 uM by HPLC analysis in presence human recombinant CYP2C8; format: ADME; details: recombinant enzyme
[12] = Metabolic stability assessed as 3-((4-(2-hydroxyquinolin-6-yl)-5-(6-methylpyridin-2-yl)-1H-imidazol-2-yl)methyl)benzamide or 3-((4-(3-hydroxyquinolin-6-yl)-5-(6-methylpyridin-2-yl)-1H-imidazol-2-yl)methyl)benzamide levels at 120 uM by HPLC analysis in presence human recombinant CYP3A4; format: ADME; details: recombinant enzyme
[13] = target: Mitogen-activated protein kinase 14 (Homo sapiens, UniProt Q16539)
[14] = target: Vascular endothelial growth factor receptor 2 (Homo sapiens, UniProt P35968); assay: Inhibition of VEGFR2
[15] = Metabolic stability assessed as 3-((4-(2-hydroxyquinolin-6-yl)-5-(6-methylpyridin-2-yl)-1H-imidazol-2-yl)methyl)benzamide or 3-((4-(3-hydroxyquinolin-6-yl)-5-(6-methylpyridin-2-yl)-1H-imidazol-2-yl)methyl)benzamide levels at 120 uM by HPLC analysis in presence human recombinant CYP2C19; format: ADME; details: recombinant enzyme

Chain of Mitogen-activated protein kinase 14 (Q16539 whole entry): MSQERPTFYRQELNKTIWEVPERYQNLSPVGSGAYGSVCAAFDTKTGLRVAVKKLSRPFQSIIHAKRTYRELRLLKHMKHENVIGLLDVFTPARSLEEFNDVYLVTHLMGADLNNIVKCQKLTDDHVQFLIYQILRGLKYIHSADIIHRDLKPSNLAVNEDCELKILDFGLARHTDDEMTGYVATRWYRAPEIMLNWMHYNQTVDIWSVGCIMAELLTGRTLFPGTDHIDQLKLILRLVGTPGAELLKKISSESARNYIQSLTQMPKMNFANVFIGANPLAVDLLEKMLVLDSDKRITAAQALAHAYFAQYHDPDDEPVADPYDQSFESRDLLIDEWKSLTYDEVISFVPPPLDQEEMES
Chain of Vascular endothelial growth factor receptor 3 (P35916 whole entry): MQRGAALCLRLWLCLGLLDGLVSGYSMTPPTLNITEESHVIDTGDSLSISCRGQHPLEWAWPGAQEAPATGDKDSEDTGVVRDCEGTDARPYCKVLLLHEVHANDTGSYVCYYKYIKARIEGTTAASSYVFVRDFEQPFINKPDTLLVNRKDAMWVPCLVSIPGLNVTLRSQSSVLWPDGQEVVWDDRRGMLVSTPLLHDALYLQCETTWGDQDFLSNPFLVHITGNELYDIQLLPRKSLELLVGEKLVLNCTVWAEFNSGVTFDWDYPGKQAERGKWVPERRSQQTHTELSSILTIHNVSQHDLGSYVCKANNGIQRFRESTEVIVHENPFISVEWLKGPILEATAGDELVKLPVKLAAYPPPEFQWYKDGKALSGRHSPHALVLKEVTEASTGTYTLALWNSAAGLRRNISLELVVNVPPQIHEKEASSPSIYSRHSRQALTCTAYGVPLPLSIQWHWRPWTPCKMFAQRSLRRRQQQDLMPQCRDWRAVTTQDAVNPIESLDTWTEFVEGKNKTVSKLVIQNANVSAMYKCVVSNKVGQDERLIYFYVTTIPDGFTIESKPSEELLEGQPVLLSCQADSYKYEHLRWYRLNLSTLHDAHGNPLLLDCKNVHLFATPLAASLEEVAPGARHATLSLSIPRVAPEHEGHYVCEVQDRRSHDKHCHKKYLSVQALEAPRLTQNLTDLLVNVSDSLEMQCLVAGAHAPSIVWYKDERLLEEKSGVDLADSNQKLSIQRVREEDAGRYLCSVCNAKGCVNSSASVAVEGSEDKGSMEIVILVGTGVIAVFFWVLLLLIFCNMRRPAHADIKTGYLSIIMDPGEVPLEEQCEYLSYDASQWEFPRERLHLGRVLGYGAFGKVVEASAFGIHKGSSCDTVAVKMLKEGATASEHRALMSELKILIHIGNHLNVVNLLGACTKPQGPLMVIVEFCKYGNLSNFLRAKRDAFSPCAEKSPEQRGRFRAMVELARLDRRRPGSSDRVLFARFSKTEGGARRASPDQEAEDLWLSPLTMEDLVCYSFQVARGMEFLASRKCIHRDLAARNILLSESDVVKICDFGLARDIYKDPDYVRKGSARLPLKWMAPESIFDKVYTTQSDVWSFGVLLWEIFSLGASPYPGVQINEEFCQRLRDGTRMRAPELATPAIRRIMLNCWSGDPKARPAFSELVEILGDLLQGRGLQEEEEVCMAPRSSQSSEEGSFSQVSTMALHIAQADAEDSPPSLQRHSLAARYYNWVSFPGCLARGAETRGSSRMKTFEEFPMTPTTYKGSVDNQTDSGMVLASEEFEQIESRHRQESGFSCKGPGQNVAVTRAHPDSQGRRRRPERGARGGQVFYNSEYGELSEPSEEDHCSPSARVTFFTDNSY
Chain of Vascular endothelial growth factor receptor 2 (P35968 whole entry): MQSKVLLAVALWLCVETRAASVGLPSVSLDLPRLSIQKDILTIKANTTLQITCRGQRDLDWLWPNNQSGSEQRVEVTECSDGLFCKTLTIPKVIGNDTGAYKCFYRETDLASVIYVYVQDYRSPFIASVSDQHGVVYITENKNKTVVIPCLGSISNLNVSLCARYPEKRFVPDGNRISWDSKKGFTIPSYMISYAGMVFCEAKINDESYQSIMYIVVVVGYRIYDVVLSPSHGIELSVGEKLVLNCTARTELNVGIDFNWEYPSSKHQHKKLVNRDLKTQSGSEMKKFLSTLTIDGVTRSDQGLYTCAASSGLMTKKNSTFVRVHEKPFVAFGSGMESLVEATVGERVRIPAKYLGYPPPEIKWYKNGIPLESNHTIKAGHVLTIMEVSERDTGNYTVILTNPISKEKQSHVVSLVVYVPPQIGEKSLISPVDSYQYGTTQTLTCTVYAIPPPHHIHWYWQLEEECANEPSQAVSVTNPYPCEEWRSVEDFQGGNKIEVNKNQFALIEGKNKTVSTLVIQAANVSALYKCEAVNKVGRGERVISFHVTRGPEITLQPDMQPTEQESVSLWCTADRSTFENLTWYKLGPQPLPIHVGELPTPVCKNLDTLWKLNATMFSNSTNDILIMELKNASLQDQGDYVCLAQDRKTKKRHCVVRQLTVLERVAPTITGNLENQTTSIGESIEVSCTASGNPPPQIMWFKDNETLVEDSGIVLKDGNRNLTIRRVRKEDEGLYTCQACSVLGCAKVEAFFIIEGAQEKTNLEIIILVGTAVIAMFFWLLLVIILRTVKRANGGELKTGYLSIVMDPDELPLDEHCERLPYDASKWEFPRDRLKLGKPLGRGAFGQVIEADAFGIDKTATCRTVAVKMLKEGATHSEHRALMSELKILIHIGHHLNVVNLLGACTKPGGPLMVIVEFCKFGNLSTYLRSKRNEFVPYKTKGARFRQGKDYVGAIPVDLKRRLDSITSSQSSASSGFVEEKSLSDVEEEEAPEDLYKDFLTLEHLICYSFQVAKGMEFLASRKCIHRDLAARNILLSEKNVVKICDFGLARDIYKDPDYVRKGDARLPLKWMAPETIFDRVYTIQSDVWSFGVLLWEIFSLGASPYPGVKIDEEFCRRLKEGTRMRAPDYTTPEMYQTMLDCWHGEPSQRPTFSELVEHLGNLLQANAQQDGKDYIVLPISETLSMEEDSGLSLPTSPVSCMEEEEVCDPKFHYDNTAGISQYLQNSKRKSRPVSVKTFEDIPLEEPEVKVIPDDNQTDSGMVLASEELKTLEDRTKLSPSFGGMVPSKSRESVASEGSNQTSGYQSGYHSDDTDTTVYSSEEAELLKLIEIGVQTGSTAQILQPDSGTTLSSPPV
Chain of Platelet-derived growth factor receptor alpha (P16234 whole entry): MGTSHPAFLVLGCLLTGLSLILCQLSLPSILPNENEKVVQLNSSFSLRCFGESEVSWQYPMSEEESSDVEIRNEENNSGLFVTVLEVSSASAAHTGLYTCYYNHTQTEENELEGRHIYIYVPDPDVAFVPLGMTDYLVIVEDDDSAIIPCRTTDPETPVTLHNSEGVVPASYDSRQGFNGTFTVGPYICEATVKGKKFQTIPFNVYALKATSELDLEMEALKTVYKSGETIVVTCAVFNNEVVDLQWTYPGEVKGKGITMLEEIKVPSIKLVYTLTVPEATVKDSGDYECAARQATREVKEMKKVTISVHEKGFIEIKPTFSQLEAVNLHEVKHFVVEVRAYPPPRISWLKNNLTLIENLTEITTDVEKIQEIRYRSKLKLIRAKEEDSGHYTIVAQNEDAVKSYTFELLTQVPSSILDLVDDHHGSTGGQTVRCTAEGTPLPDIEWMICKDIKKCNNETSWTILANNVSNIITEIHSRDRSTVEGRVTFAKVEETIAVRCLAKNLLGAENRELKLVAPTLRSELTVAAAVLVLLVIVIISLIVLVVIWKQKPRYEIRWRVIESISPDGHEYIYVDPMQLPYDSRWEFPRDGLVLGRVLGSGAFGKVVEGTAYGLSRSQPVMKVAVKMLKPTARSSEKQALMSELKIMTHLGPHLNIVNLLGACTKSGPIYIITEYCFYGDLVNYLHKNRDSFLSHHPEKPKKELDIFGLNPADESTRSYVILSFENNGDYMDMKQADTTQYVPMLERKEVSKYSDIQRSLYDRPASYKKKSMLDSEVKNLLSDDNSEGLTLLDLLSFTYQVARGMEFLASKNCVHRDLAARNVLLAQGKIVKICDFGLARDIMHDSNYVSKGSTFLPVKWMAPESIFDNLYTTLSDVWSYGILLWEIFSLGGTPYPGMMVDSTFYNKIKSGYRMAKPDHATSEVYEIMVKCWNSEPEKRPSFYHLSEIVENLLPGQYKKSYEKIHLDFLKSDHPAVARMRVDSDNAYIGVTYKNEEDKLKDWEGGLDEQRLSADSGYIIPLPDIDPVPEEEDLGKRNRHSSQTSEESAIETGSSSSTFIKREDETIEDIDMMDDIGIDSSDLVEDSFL

Stability [2] [peak area] | Stability [3] [peak area] | Stability [4] [peak area] | Stability [5] [peak area] | Compound | solubility [1] [mg/mL] | IC50 [6] [nM] | IC50 [7] [nM] | IC50 [8] [µM] | IC50 [9] [nM] | IC50 [10] [nM] | Stability [11] [peak area] | Stability [12] [peak area] | IC50 [13] [nM] | IC50 [14] [nM] | Stability [15] [peak area]
 |  |  |  | Cc1cccc(-c2[nH]c(Cc3cccc(C#N)c3)nc2-c2ccc3ncccc3c2)n1 | 7.1 (≈ 17.7 mM) |  |  |  |  |  |  |  |  |  | 
12.4 | 15.4 | 33.4 | 17 | Cc1cccc(-c2[nH]c(Cc3cccc(C(N)=O)c3)nc2-c2ccc3nccnc3c2)n1 |  |  |  |  |  |  |  |  |  |  | 
 |  |  |  | Cc1cccc(-c2nc(Cc3cccc(C(N)=O)c3)[nH]c2-c2ccc3ncccc3c2)n1 | 14.3 (≈ 34.1 mM) | 2100 | 34 | 3 | 940 | 650 | 1.99 | 10.6 | 540 | 2200 | 11.3
